Laboratory results as given in patent publication US4785090A, “Cephalosporin derivatives” (Meiji Seika Kaisha, Ltd., priority 1984, dated 1988).
Converted amounts (≈) assume the structure as drawn. Structures can show the parent of a compound that is named as a salt. Where two headings read alike, the source gives them in different places.

Assays:
[1] = tested on: Serratia marcescens No. 2; test: Minimum Growth Inhibitory Concentration (MIC), Serratia marcescens No. 2; type: cell-based
From the text: (§1) Minimum Growth Inhibitory Concentration (MIC) mcg/ml
10. Serratia marcescens No. 2

[2] = tested on: Klebsiella pneumoniae PCI 602; test: Minimum Growth Inhibitory Concentration (MIC), Klebsiella pneumoniae PCI 602; type: cell-based
From the text: as §1
5. Klebsiella pneumoniae PCI 602

Eshcerichia coli GN 206 = test: Minimum Growth Inhibitory Concentration (MIC), Escherichia coli GN 206; type: cell-based
From the text: as §1
4. Eshcerichia coli GN 206

Proteus rettgeri GN624 = test: Minimum Growth Inhibitory Concentration (MIC), Proteus rettgeri GN624; type: cell-based; details: Providencia rettgeri
From the text: as §1
9. Proteus rettgeri GN624

[3] = tested on: Escherichia coli NIHJ JC2; test: Minimum Growth Inhibitory Concentration (MIC), Escherichia coli NIHJ JC2; type: cell-based
From the text: as §1
3. Escherichia coli NIHJ JC2

Proteus mirabilis GN 79 = test: Minimum Growth Inhibitory Concentration (MIC), Proteus mirabilis GN 79; type: cell-based
From the text: as §1
6. Proteus mirabilis GN 79

[4] = tested on: Salmonella typhimurium LT2; test: Minimum Growth Inhibitory Concentration (MIC), Salmonella typhimurium LT2; type: cell-based; details: Salmonella enterica, read-out: Minimum Growth Inhibitory Concentration (MIC)
From the text: as §1
7. Salmonella typhimurium LT2

Proteus vulgaris GN 76 = test: Minimum Growth Inhibitory Concentration (MIC), Proteus vulgaris GN 76; type: cell-based
From the text: as §1
10. Proteus vulgaris GN 76
as §1
8. Proteus vulgaris GN 76

[5] = tested on: Staphylococcus aureus 209PJC1; test: Minimum Growth Inhibitory Concentration (MIC), Staphylococcus aureus 209PJC1; type: cell-based
From the text: as §1
1. Staphylococcus aureus 209PJC1
as §1
2. Staphylococcus aureus 209 PJC1

[6] = tested on: Staphylococcus aureus Smith; test: Minimum Growth Inhibitory Concentration (MIC), Staphylococcus aureus Smith; type: cell-based; details: read-out: Minimum Growth Inhibitory Concentration (MIC)
From the text: as §1
1. Staphylococcus aureus Smith

[7] = tested on: Serratia marcescens No. 1; test: Minimum Growth Inhibitory Concentration (MIC), Serratia marcescens No. 1; type: cell-based; details: Table 2, bacterium 11: Serratia marcescens No. 1
From the text: as §1
11. Serratia marcescens No. 1

[8] = Serum concentration in mice after subcutaneous administration; type: in vivo; details: mouse, sc, subcutaneous 25 mg/kg
Protocol: The experiment was conducted by using 3 mice (average body weight 20 g) in each group, subcutaneously administering 25 mg/kg of the sample, taking blood samples at predetermined intervals, separating the serum and measuring the sample concentration by an antibacterial activity test using Escherichia coli as a testing bactera.

[9] = Table 2, bacterium 10: Serratia marcescens No. 2, read-out: Minimum Growth Inhibitory Concentration (MIC)
[10] = PCI602, Table 2, bacterium 5: Klebsiella pneumoniae PCI 602, read-out: Minimum Growth Inhibitory Concentration (MIC)
[11] = GN206, Table 2, bacterium 4: Eshcerichia coli GN 206, read-out: Minimum Growth Inhibitory Concentration (MIC)
[12] = Table 2, bacterium 9: Proteus rettgeri GN624, read-out: Minimum Growth Inhibitory Concentration (MIC)
[13] = NIHJJC2, Table 2, bacterium 3: Escherichia coli NIHJ JC2, read-out: Minimum Growth Inhibitory Concentration (MIC)
[14] = GN79, Table 2, bacterium 6: Proteus mirabilis GN 79, read-out: Minimum Growth Inhibitory Concentration (MIC)
[15] = Table 2, bacterium 7: Salmonella typhimurium LT2
[16] = GN76, Table 2, bacterium 8: Proteus vulgaris GN 76, read-out: Minimum Growth Inhibitory Concentration (MIC)
[17] = Table 2, bacterium 2: Staphylococcus aureus 209 PJC1, read-out: Minimum Growth Inhibitory Concentration (MIC)
[18] = Table 2, bacterium 1: Staphylococcus aureus Smith
[19] = Serratia marcescens, NO.2, read-out: Minimum Growth Inhibitory Concentration (MIC)
[20] = Klebsiella pneumoniae, PCI602, read-out: Minimum Growth Inhibitory Concentration (MIC)
[21] = GN206, read-out: Minimum Growth Inhibitory Concentration (MIC)
[22] = GN624, read-out: Minimum Growth Inhibitory Concentration (MIC)
[23] = Escherichia coli, NIHJJC2, read-out: Minimum Growth Inhibitory Concentration (MIC)
[24] = Proteus mirabilis, GN79, read-out: Minimum Growth Inhibitory Concentration (MIC)
[25] = Proteus vulgaris, GN76, read-out: Minimum Growth Inhibitory Concentration (MIC)
[26] = Staphylococcus aureus, 209PJC1, read-out: Minimum Growth Inhibitory Concentration (MIC)

Row | SMILES | MIC [2, 10] | MIC (Eshcerichia coli GN 206; [11]) | MIC (Proteus rettgeri GN624; [12]) | MIC [3, 13] | MIC (Proteus mirabilis GN 79; [14]) | MIC [4, 15] | MIC (Proteus vulgaris GN 76; [16]) | MIC [5, 17] | MIC [6, 18] | MIC [7] | further results
1 | CCO/N=C(\C(=O)N[C@@H]1C(=O)N2C(C(=O)[O-])=C(CSc3cc[n+](C(C)C(=O)O)cc3)CS[C@H]12)c1csc(N)n1 (stereo partly drawn) [Example 31, (6R,7R)-7-[(Z)-2-(2-Aminothiazol-4-yl)-2-ethoxyiminoacetamido]-3-[1-(1-carboxy-1-ethylpyridinium-4-yl)thiomethyl]-ceph-3-em-4-carboxylic acid sodium salt] | 0.2 mg/L | 0.39 mg/L | 0.78 mg/L | 6.25 mg/L | 0.78 mg/L | 0.2 mg/L | 1.56 mg/L | 3.13 mg/L | 3.13 mg/L |  | MIC [1, 9]: 0.39 mg/L
2 | CO/N=C(\C(=O)N[C@@H]1C(=O)N2C(C(=O)[O-])=C(CSc3cc[n+](CCF)cc3)CS[C@H]12)c1csc(N)n1 [Example 84, (6R,7R)-7-[(Z)-2-(2-Aminothiazol-4-yl)-2-methoxyiminoacetamido]-3-[1-(2-fluoroethylpyridinium-4-yl)thiomethyl]-ceph-3-em-4-carboxylate] | 0.1 mg/L (≈ 0.181 µM) | < 0.025 mg/L | 0.1 mg/L (≈ 0.181 µM) | 0.05 mg/L (≈ 0.0905 µM) | 0.39 mg/L (≈ 0.706 µM) | 0.05 mg/L (≈ 0.0905 µM) | 0.2 mg/L (≈ 0.362 µM) | 0.2 mg/L (≈ 0.362 µM) | 0.2 mg/L (≈ 0.362 µM) | 0.025 mg/L (≈ 0.0452 µM) | 
3 | CO/N=C(\C(=O)N[C@@H]1C(=O)N2C(C(=O)[O-])=C(CSc3cc[n+](CC(F)(F)F)cc3)CS[C@H]12)c1csc(N)n1 [Example 80, (6R,7R)-7-[(Z)-2-(2-Aminothiazol-4-yl)-2-methoxyiminoacetamido]-3-[1-(2,2,2-trifluoroethylpyridinium-4-yl)thiomethyl]-ceph-3-em-4-carboxylate] | 0.2 mg/L (≈ 0.34 µM) | 0.05 mg/L (≈ 0.0849 µM) | 0.2 mg/L (≈ 0.34 µM) | 0.2 mg/L (≈ 0.34 µM) | 1.56 mg/L (≈ 2.65 µM) | 0.2 mg/L (≈ 0.34 µM) | 0.78 mg/L (≈ 1.33 µM) | 0.2 mg/L (≈ 0.34 µM) | 0.2 mg/L (≈ 0.34 µM) | 0.2 mg/L (≈ 0.34 µM) | 
4 | C=CCO/N=C(\C(=O)N[C@@H]1C(=O)N2C(C(=O)O)=C(CSc3cc[n+](CC(=O)O)cc3)CS[C@H]12)c1csc(N)n1.[Na+] [Example 30, (6R,7R)-7-[(Z)-2-(2-Aminothiazol-4-yl)-2-(allyloxyimino)acetamido]-3-[(1-carboxymethylpyridinium-4-yl)thiomethyl]-ceph-3-em-4-carboxylic acid sodium salt] |  |  |  |  |  | 0.1 mg/L |  |  |  |  | MIC [1, 19]: 0.1 mg/L; MIC [2, 20]: 0.1 mg/L; MIC (Eshcerichia coli GN 206; [21]): 1.56 mg/L; MIC (Proteus rettgeri GN624; [22]): 0.2 mg/L; MIC [3, 23]: 25 mg/L; MIC (Proteus mirabilis GN 79; [24]): 0.05 mg/L; MIC (Proteus vulgaris GN 76; [25]): 0.05 mg/L; MIC [5, 26]: 12.5 mg/L; MIC ([6]; Staphylococcus aureus): 25 mg/L
5 | CCO/N=C(\C(=O)N[C@@H]1C(=O)N2C(C(=O)[O-])=C(CSc3cc[n+](CC(F)(F)F)cc3)CS[C@H]12)c1csc(N)n1 [Example 81, (6R,7R)-7-[(Z)-2-(2-Aminothiazol-4-yl)-2-ethoxyiminoacetamido]-3-[1-(2,2,2-trifluoroethylpyridinium-4-yl)thiomethyl]-ceph-3-em-4-carboxylate] | 0.1 mg/L (≈ 0.166 µM) | ≤ 0.025 mg/L | 0.1 mg/L (≈ 0.166 µM) | 0.05 mg/L (≈ 0.083 µM) | 0.78 mg/L (≈ 1.29 µM) | 0.05 mg/L (≈ 0.083 µM) | 0.39 mg/L (≈ 0.647 µM) | 0.39 mg/L (≈ 0.647 µM) | 0.39 mg/L (≈ 0.647 µM) | 0.05 mg/L (≈ 0.083 µM) | 
6 | Nc1nc(/C(=N/OCC(=O)O)C(=O)N[C@@H]2C(=O)N3C(C(=O)O)=C(CSc4cc[n+](CC(=O)O)cc4)CS[C@H]23)cs1.[Na+] [Example 29, (6R,7R)-7-[(Z)-2-(2-Aminothiazol-4-yl)-2-(carboxymethoxyimino)acetamido]-3-[(1-carboxymethylpyridinium-4-yl)thiomethyl]-ceph-3-em-4-carboxylic acid sodium salt] |  |  |  |  |  | 0.2 mg/L |  |  |  |  | MIC [1, 19]: 0.39 mg/L; MIC [2, 20]: 0.1 mg/L; MIC (Eshcerichia coli GN 206; [21]): 0.39 mg/L; MIC (Proteus rettgeri GN624; [22]): 3.13 mg/L; MIC [3, 23]: 0.39 mg/L; MIC (Proteus mirabilis GN 79; [24]): 0.79 mg/L; MIC (Proteus vulgaris GN 76; [25]): 0.2 mg/L; MIC [5, 26]: 0.39 mg/L; MIC ([6]; Staphylococcus aureus): 0.78 mg/L
7 | Nc1nc(/C(=N/OCC(=O)O)C(=O)N[C@@H]2C(=O)N3C(C(=O)[O-])=C(CSc4cc[n+](CC(F)(F)F)cc4)CS[C@H]23)cs1 [Example 82, (6R,7R)-7-[(Z)-2-(2-Aminothiazol-4-yl)-2-(carboxymethoxyimino)acetamido]-3-[1-(2,2,2-trifluoroethylpyridinium-4-yl)thiomethyl]-ceph-3-em-4-carboxylic acid sodium salt] | ≤ 0.025 mg/L | 0.05 mg/L | < 0.025 mg/L | 0.05 mg/L | 0.05 mg/L |  | 0.05 mg/L | 3.13 mg/L | 3.13 mg/L | < 0.025 mg/L | MIC ([4]; TYPHIMURIUM): < 0.025 mg/L
8 | CCO/N=C(\C(=O)N[C@@H]1C(=O)N2C(C(=O)[O-])=C(CSc3cc[n+](C(C(=O)O)c4ccccc4)cc3)CS[C@H]12)c1csc(N)n1 (stereo partly drawn) [Example 32, (6R,7R)-7-[(Z)-2-(2-Aminothiazol-4-yl)-2-ethoxyiminoacetamido]-3-[(1-carboxybenzylpyridinium-4-yl)thiomethyl]-ceph-3-em-4-carboxylic acid sodium salt] | 0.2 mg/L | 0.78 mg/L | 0.39 mg/L | 0.39 mg/L | 3.13 mg/L | 0.39 mg/L | 0.78 mg/L | 1.56 mg/L | 1.56 mg/L |  | MIC [1, 9]: 0.78 mg/L
9 | CCO/N=C(\C(=O)N[C@@H]1C(=O)N2C(C(=O)[O-])=C(CSc3cccc[n+]3CC(=O)O)CS[C@H]12)c1csc(N)n1 [Example 33, sodium salt] | 0.05 mg/L | 0.78 mg/L | 6.25 mg/L | 0.05 mg/L | 0.39 mg/L | 0.05 mg/L | 0.39 mg/L | 0.78 mg/L | 1.56 mg/L |  | MIC [1, 9]: 0.1 mg/L
10 | CC(C)(O/N=C(\C(=O)N[C@@H]1C(=O)N2C(C(=O)[O-])=C(CSc3cc[n+](CC(F)(F)F)cc3)CS[C@H]12)c1csc(N)n1)C(=O)O [Example 83, (6R,7R)-7-[(Z)-2-(2-Aminothiazol-4-yl)-2-(carboxyprop-2-oxyimino)acetamido]-3-[1-(2,2,2-trifluoroethylpyridinium-4-yl)thiomethyl]-ceph-3-em-4-carboxylic acid sodium salt] | 0.2 mg/L | 0.2 mg/L | 0.2 mg/L | 0.2 mg/L | 0.39 mg/L | 0.05 mg/L | 0.2 mg/L | 3.13 mg/L | 6.25 mg/L | 0.05 mg/L | 
11 | CO/N=C(\C(=O)N[C@@H]1C(=O)N2C(C(=O)O)=C(CSc3cc[n+](CC(=O)O)cc3)CS[C@H]12)c1csc(N)n1.[Na+] |  |  |  |  |  |  |  |  |  |  | MIC [1, 19]: 0.05 mg/L; MIC [2, 20]: 0.025 mg/L; MIC (Eshcerichia coli GN 206; [21]): 0.2 mg/L; MIC (Proteus rettgeri GN624; [22]): 0.39 mg/L; MIC [3, 23]: 1.56 mg/L; concentration at 0.5 h ([8]; 1/2 hr): 12.5 µg/mL; concentration at 0.25 h ([8]; 1/4 hr): 28 µg/mL; concentration at 5 min ([8]; 1/12 hr): 20 µg/mL; concentration at 1 h ([8]; 1 hr): 2.2 µg/mL; MIC (Proteus mirabilis GN 79; [24]): 0.2 mg/L; MIC ([4]; TYPHIMURIUM): 0.025 mg/L; MIC (Proteus vulgaris GN 76; [25]): 0.05 mg/L; MIC [5, 26]: 0.78 mg/L; MIC ([6]; Staphylococcus aureus): 1.56 mg/L
